From patent US7030287B2, “Method of decreasing nitrate nitrogen and volatile organic compound in soil and groundwater” (Matsushita Electric Industrial Co., Ltd., priority 2001, dated 2006) come the findings set out here.

One assay can be described thus: Well experiment in soil polluted with tetrachloroethylene (Example 8): analysis of water collected from the well. As to conditions: 30 kg added over 6 days, initial about 0.25 mg/L. The procedure: In the method of decreasing nitrate nitrogen and volatile organic compounds in Example 8, an experiment was conducted using a well provided in soil polluted with tetrachloroethylene.
It had been known by previous investigation that about 125 m^2 of the surface of soil was polluted, and a water-containing layer at a position 6 m below the ground surface was polluted. In this water-containing layer, the tetrachloroethylene concentration was about 0.25 mg/L.
30 kg of stearylamine was gradually added over 6 days through a well in the polluted soil, and the tetrachloroethylene concentration, total carbon concentration and total nitrogen concentration after 90 days were analyzed from water collected from the well.
Turning to `CCCCCCCCCCCCCCCCCCN` [stearylamine], the “tetrachloroethylene concentration after 90 days” value is given as 0.08 mg/L.

A short description of a further assay: Column experiment (Example 3): nitrate-polluted well water passed through column filled with material. Conditions: well water (nitrate nitrogen 14 mg/L) after column, passing time 5.5 hours, 21° C. From the text: FIG. 3 is a view showing the structure of a column experiment apparatus used for effecting the method of decreasing nitrate nitrogen and volatile organic compounds in Example 3. Here, the column is a vessel having a function of decreasing nitrate nitrogen and volatile organic compounds, and decreases nitrate nitrogen and volatile organic compounds by allowing groundwater such as well water and the like to pass. In Example 3, a resin column having a diameter of 28 cm and a height of 2 m was used.
Well water evacuated from a well 23 by a pump 24 flow into this column 21 through an introduction port 25 of the column 21. It is so constituted that well water which comes into with the experiment material 22 while rising in the column 21, is discharged from an outflow port 26 formed at the upper part of the column 21.
Column experiments were conducted as described below using the column experiment apparatus constituted as described above.
From already-provided well polluted with nitrate nitrogen (nitrate nitrogen concentration: 14 mg/L), well water was evacuated by a pump 24 and allowed to flow into the column 21. In Example 3, six resin columns having a diameter of 28 cm and a height of 2 m were used, and experiments were conducted on 12 kinds of experiment materials using the resin columns each twice.
In the examples, experiment materials of the present invention such as fatty acids and alcohols were filled in columns (column Nos. 1 to 8) and comparative materials of conventional technologies were filled in columns (column Nos. 9 to 12) for comparison, and the evacuated groundwater was passed through them. In these experiments, substantial filling heights of the experiment materials in the columns were all 1.8 m. The passing time of groundwater in the column was 5.5 hours, and the average environment temperature during the experiment period was 21° C.
The nitrate nitrogen concentration, ammonia nitrogen concentration and total carbon concentration of the well water after passing through the column 30 days after initiation of passing of well water which is experiment initiation were measured.
Regarding `CCCCCCCCCCCCCCCCCCCCCC(=O)O` [Behenic acid], the “Nitrate nitrogen concentration after 30 days” value (shortened to “Nitrate nitrogen concentration”) is listed as 1.8 mg/L.

With `CCCCCCCCCCCCCCCCCC(=O)OC` [Methyl stearate], the “Nitrate nitrogen concentration” value was determined as 1.4 mg/L.

On to `CCCCCCCCCCCCCCO` [Myristyl alcohol], for which the “Nitrate nitrogen concentration” value is reported as 2.5 mg/L.

On to `OC[C@H]1O[C@@](CO)(O[C@H]2O[C@H](CO)[C@@H](O)[C@H](O)[C@H]2O)[C@@H](O)[C@@H]1O` [Sucrose, reference compound], for which the “Nitrate nitrogen concentration” value is given as 15.0 mg/L.

For the molecule Sorbitan monomyristate, the “Nitrate nitrogen concentration” value is on record as 1.6 mg/L.
